The source of these data is patent US12473259B2, “Anhydrous crystal of monosodium n-(2-ethylsulfonylamino-5-trifluoromethyl-3-pyridyl)cyclohexane carboxamide” (ISHIHARA SANGYO KAISHA, LTD., priority 2019, dated 2025).

What all share (assay type): physicochemical
Series [1] can be described thus: Observation of particle shape by scanning electron microscopy. The note with it: SEM micrograph. From the text:
Micrographs of particles of the anhydrous crystal of the present invention and the monohydrous crystal were taken using scanning electron microscopy (SEM) (Hitachi, Ltd., S-3200N).

Series [2] can be described thus: Tapped density and bulk density, powder tester (Japanese Pharmacopoeia Method 3). As to conditions: 100 mL cylindrical container; for Tapped density: 100 times per 3 minutes. As for the experimental part: Regarding the anhydrous crystal obtained in Production Example 1 and the monohydrous crystal as a raw material, the bulk density and the tapped density were measured with a powder tester type A.B.D-72 (TSUTSUI SCIENTIFIC INSTRUMENTS Co., Ltd.) in accordance with of Method 3 (measuring vessel) of Determination of Bulk Density and Method 3 of Determination of Tapped Density mentioned in the Japanese Pharmacopoeia, Seventeenth Edition. Specifically, regarding the bulk density, an excess of a sample was freely fallen through the apparatus into a cylindrical container (volume of 100 mL, inner diameter of 5.05 cm) until a container overflowed. Then, the edge of a spatula standing vertically in contact with the top surface of the container was moved smoothly, and an excess of the sample was carefully slashed off from the top surface of the container. The bulk density was calculated by dividing the mass (g) of the sample in the container by a volume of 100 mL. The tapped density was, specifically, measured as a density when the sample was filled in a cylindrical container (volume of 100 mL, inner diameter of 5.05 cm) in the same manner as for the bulk density measurement and was fallen using the apparatus at a rate of 100 times per 3 minutes.

Series [3] in a line: Long diameter, short diameter and aspect ratio by particle shape image analyzer PITA-3. As to conditions: for Aspect ratio (d50): long diameter (d50)/short diameter (d50). The procedure:
Regarding the anhydrous crystal obtained in Production Example 1 and the monohydrous crystal as a raw material, the long diameter and the short diameter were measured using a particle shape image analyzer PITA-3 (SEISHIN ENTERPRISE Co., Ltd.), and the aspect ratio was calculated.
The longest diameter in the particle was regarded as the long diameter, and the shortest diameter in the particle was regarded as the short diameter. The aspect ratio was calculated by the following formula: Aspect ratio=long diameter/short diameter
Specifically, measurement was performed under the following conditions:
Carrier liquid: n-hexane+lecithin
Dispersion condition: ultrasonic wave for 5 minutes
Flow rate of first carrier liquid: 500.00 μL/second
Flow rate of second carrier liquid: 500.00 μL/second
Flow rate of sample dispersion liquid: 0.42 μL/second
Observation magnification: 10 times
Light control filter: None
Number of particles observed: 6,992 (anhydrous crystal) or 9,628 (monohydrous crystal)

Series [4] in a line: BET specific surface area by nitrogen adsorption method. The note with it: BET multipoint method, nitrogen gas. The procedure:
The specific surface area was measured by a nitrogen adsorption method using Flow sorb II 2300 (Shimadzu Corporation). Specifically, the BET specific surface area was measured by a BET multipoint method by nitrogen adsorption under the following conditions: • Sample amount: 0.2 g • Deaeration condition: 150° C. (anhydrous), 80° C. (monohydrous) • Adsorption gas: nitrogen gas

The nature of series [5]: Measurement of solubility in distilled water (HPLC). As to conditions: room temperature, shaken 1 hour, saturated solution. As for the experimental part: After 10 mL of distilled water was put into 0.5 g of the anhydrous crystal obtained in Production Example 1 or the monohydrous crystal as a raw material, the solution was horizontally shaken with a shaker (manufactured by TAITEC CORPORATION, STRONG SHAKER SR-2DS) at room temperature and at a shaking speed of 150 strokes/min and a shaking width of 4 cm/stroke for 1 hour. Thereafter, a precipitate was confirmed to be remained, and centrifugation (3,000 rpm×10 minutes) was performed to take a supernatant, followed by filtration using a membrane filter to obtain a supernatant of a saturated solution. 2 mL of the supernatant of the saturated solution was weighed in a 20 mL volumetric flask to make a constant volume with a mobile phase, and this was used as a sample solution, followed by measurement of solubility under the following HPLC conditions: • Analyzer: HPLC ACQUITY Arc system (manufactured by Waters K. K.) • Mobile phase: acetonitrile/water/acetic acid=50/49.5/0.5, v/v • Detector: ultraviolet spectrophotometer λ=276 nm (1 Au/V) • Column: Nucleosil 5 C18 (4.6 φ×250 mm) (manufactured by MACHEREY-NAGEL GmbH & Co. KG) • Column temperature: 50° C. • Flow rate: 1.075 ml/min • Injection volume: 20 μL • Measurement time: 40 minutes

Series [6] can be described thus: Angle of repose (Japanese Pharmacopoeia). As to conditions: compared with the monohydrous crystal. The procedure: Regarding the particles of the anhydrous crystal obtained in Production Example 1 and the monohydrous crystal, the angle of repose was measured in accordance with Angle of repose mentioned in the Japanese Pharmacopoeia, Seventeenth Edition.

The structures appear in SMILES notation.

What is called Solubility is the dissolved amount per volume that the medium holds. A high value points to much dissolved substance. Take `CCS(=O)(=O)Nc1ncc(C(F)(F)F)cc1NC(=O)C1CCCCC1.[Na]` [Anhydrous crystal, monosodium N-(2-ethylsulfonylamino-5-trifluoromethyl-3-pyridyl)cyclohexane carboxamide]: in series [1], the Particle shape entry is recorded as “massive”. In series [2], this compound gave a Bulk density of 0.289 g/mL and a Tapped density of 0.367 g/mL. In series [3], the “Long diameter (d50)” value is on record as 6.09 μm, the “Short diameter (d50)” value worked out at 3.34 μm and the “Aspect ratio (d50)” value is 1.82. This compound displayed a Specific surface area in series [4] of 3.38 m^2/g. Besides, the Solubility in series [5] was determined as 204 µg/mL. Also, in series [6], the Angle of repose entry is “smaller than the angle of repose of the particle of the monohydrous crystal”.

The solubility is how much of the substance goes into solution per volume. For `CCS(=O)(=O)Nc1ncc(C(F)(F)F)cc1NC(=O)C1CCCCC1.[Na]` [Monohydrous crystal, monosodium N-(2-ethylsulfonylamino-5-trifluoromethyl-3-pyridyl)cyclohexane carboxamide], in series [1], the Particle shape entry was “needle like”. Moreover, in series [2], the Bulk density is on record as 0.18 g/mL and the Tapped density is given as 0.207 g/mL. Also, in series [3], the “Long diameter (d50)” value was 15.80 μm, the “Short diameter (d50)” value came to 3.19 μm and the “Aspect ratio (d50)” value was 4.95. The Specific surface area in series [4] is 4.36 m^2/g. For the same compound, in series [5] (water, thermodynamic from solid), the solubility at 1 h came out at 160 µg/mL.
